Test results taken from patent US7504519B2, “Derivatives of pyrazoline, procedure for obtaining them and use thereof as therapeutic agents” (Laboratorios Del Dr. Esteve, S.A., priority 2004, dated 2009).
Counter-ions that a name gives are not always drawn.

Columns and labels:
[1] = system: rats; experiment: Analgesia test on rats (carrageenan subplantar injection, thermal stimulus, Hargreaves method); format: in vivo; details: analgesic activity, rat, 2.5 mg/kg i.v., compound given 3 h after carrageenan; for % activity At 30 min.: 30 min after administration; for % activity At 120 min.: 120 min after administration
Experimental: Biological Activity Analgesia Test on Rats
The analgesic activity of the compounds of the invention is tested as described in the publication by K. Hargreaves et al., Pain, 32. 77-88. (1988).
Briefly, the rats are transferred to the experimentation laboratory, where they remain in groups of five in Makrolon cages with barred floors to prevent coprophagy. At the start of the experiment, water and food were removed and animals weighed and labelled appropriately.
Each rat receives by subplantar injection 0.1 ml of sterile saline solution in the rear left leg, followed by 0.1 ml 2% (weight/volume) carrageenan suspension in sterile saline solution in the rear right leg.
Three hours following the subplantar injections of carrageenan and vehicle, each rat was intravenously administered with compounds to be tested, dissolved in sterile saline serum, at a dose of 1 ml per kg of body weight. Then after administration of compounds, analgesic activity values were readed. For this purpose, rats were transferred to the methacrylate chambers of an analgesimeter with a glass floor. Once the period of acclimatisation in the chambers had elapsed (i.e., after 5 minutes), an infrared radiation lamp capable of producing thermal stimulation was placed under the rats' legs. Readings of analgesic activity were taken at 15, 30, 60 and 120 minutes following administration of the products or their vehicle.
The thermal stimulus, calibrated beforehand to 10 amperes, is applied to each of the rear legs at intervals of at least 1 minute. The response of the rats to the pain consists in raising the leg, thus avoiding contact with the floor.

Compound: O=C(NS(=O)(=O)c1ccc(N2N=C(C(F)(F)F)CC2c2ccccc2)cc1)c1ccc(C(F)(F)F)cc1 (stereo not shown) (as salt: sodium) [Compound 22, N-(4-Trifluoromethylbenzoyl)-4-(4,5-dihydro-5-phenyl-3-trifluoromethyl-pyrazole-1-yl)-benzenesulphonamide]
- melting point: > 280 °C

Compound: CCC(=O)NS(=O)(=O)c1ccc(C2CC(C(F)(F)F)=NN2c2ccccc2)cc1 (stereo not shown) (as salt: sodium) [Compound 32, N-Propionyl-4-(4,5-dihydro-1-phenyl-3-trifluoromethyl-1H-pyrazole-5-yl)benzenesulphonamide]
- melting point: > 280 °C

Compound: CCCCOC(=O)NS(=O)(=O)c1ccc(C2CC(C(F)(F)F)=NN2c2ccccc2)cc1 (stereo not shown) (as salt: sodium) [Compound 37, N-Butoxycarbonyl-4-(4,5-dihydro-1-phenyl-3-trifluoromethyl-1H-pyrazole-5-yl)benzenesulphonamide]
- melting point: 223 to 230 °C

Compound: O=C(CO)NS(=O)(=O)c1ccc(N2N=C(C(F)(F)F)CC2c2ccccc2)cc1 (stereo not shown) [Compound 3, N-(2-Hydroxyacetyl)-4-(4,5-dihydro-5-phenyl-3-trifluoromethyl-pyrazole-1-yl)-benzenesulphonamide]
- % activity At 30 min. [1]: 41%
- % activity At 120 min. [1]: 40%

Compound: O=C(NS(=O)(=O)c1ccc(N2N=C(C(F)(F)F)CC2c2ccccc2)cc1)c1ccc(C(F)(F)F)cc1 (stereo not shown) [Compound 22, N-(4-Trifluoromethylbenzoyl)-4-(4,5-dihydro-5-phenyl-3-trifluoromethyl-pyrazole-1-yl)-benzenesulphonamide]
- % activity At 30 min. [1]: 72%
- % activity At 120 min. [1]: 76%

Compound: COC(=O)c1ccc(NS(=O)(=O)c2ccc(N3N=C(C(F)(F)F)CC3c3ccccc3)cc2)cc1 (stereo not shown) [Compound 25, 4-[4-(4,5-dihydro-5-phenyl-3-trifluoromethyl-pyrazole-1-yl)-benzenesulphonylamine] benzoic acid methylic ester]
- % activity At 30 min. [1]: 67%
- % activity At 120 min. [1]: 66%

Compound: COC(=O)NS(=O)(=O)c1ccc(C2CC(C(F)(F)F)=NN2c2ccccc2)cc1 (stereo not shown) [Compound 31, N-Methoxycarbonyl-4-(4,5-dihydro-1-phenyl-3-trifluoromethyl-1H-pyrazole-5-yl)benzenesulphonamide]
- % activity At 30 min. [1]: 76%
- % activity At 120 min. [1]: 49%

Compound: CCC(=O)NS(=O)(=O)c1ccc(C2CC(C(F)(F)F)=NN2c2ccccc2)cc1 (stereo not shown) [Compound 32, N-Propionyl-4-(4,5-dihydro-1-phenyl-3-trifluoromethyl-1H-pyrazole-5-yl)benzenesulphonamide]
- % activity At 30 min. [1]: 72%
- % activity At 120 min. [1]: 51%

Compound: CCCCOC(=O)NS(=O)(=O)c1ccc(C2CC(C(F)(F)F)=NN2c2ccccc2)cc1 (stereo not shown) [Compound 37, N-Butoxycarbonyl-4-(4,5-dihydro-1-phenyl-3-trifluoromethyl-1H-pyrazole-5-yl)benzenesulphonamide]
- % activity At 30 min. [1]: 68%
- % activity At 120 min. [1]: 75%

Compound: N-(4-Trifluoromethyl)benzoil-4-(4,5-dihydro-1-phenyl-3-trifluoromethyl-1H-pyrazole-5-yl)benzenesulphonamide [Compound 39]
- % activity At 30 min. [1]: 92%
- % activity At 120 min. [1]: 57%

Compound: N-Ethyloxicarbonyl-4-(4,5-dihydro-5-phenyl-3-trifluoromethyl-pyrazole-1-yl)-benzenesulphonamide [Compound 4]
- % activity At 30 min. [1]: 78%
- % activity At 120 min. [1]: 48%
